Results taken from patent publication US20240390316A1 (SHENZHEN TECHNOLOGY UNIVERSITY, priority 2022, published 2024).
Structures can show the parent of a compound that is named as a salt.

Assays:
[1] = tested on: CVB1; conditions: Coxsackievirus B type 1; CPE in vitro
Procedure: 72 hours later, the degree of a cytopathic effect was detected by an AlamarBlue fluorescent reagent, and an inhibition rate was calculated by using a formula.

[2] = Vero cytotoxicity test; assay type: cell-based; conditions: African green monkey; Vero cells; mean ± standard deviation of three groups of parallel tests
Procedure: A cytotoxicity test of CVB1, CVB2 and CVB3 on Vero cells was carried out with three groups of parallel tests, respectively, and Table 1 was obtained.

[3] = tested on: enterovirus type 71 (BrCr/C4 subtype); assay: Antiviral activity against enterovirus type 71 (CPE in vitro); assay type: cell-based
Procedure: (§1) Test 3: In vitro anti-CVB1, anti-CVB2, anti-CVB3, anti-CVA16, anti-EV71 BrCr and anti-EV71-C2 virus models of Vero cells (cell quantity: 1.5×10^4 cells per well) were established, respectively. […] An inhibition rate and a standard deviation were measured by an AlamarBlue test in three parallel tests.

[4] = tested on: Coxsackievirus A (6/10/16 subtype); assay: Antiviral activity against Coxsackievirus A (CPE in vitro); assay type: cell-based
Procedure: as §1

[5] = tested on: Coxsackievirus B; assay: Inhibition rate at 25 μM in virus-infected Vero cells (AlamarBlue); assay type: cell-based; conditions: 72 hours, FIG. 3
Procedure: as §1

[6] = tested on: CVB1; assay: Progeny virus yield of CVB1 in Vero cells (supernatant titrated by plaque reduction test); assay type: cell-based, Coxsackievirus B1 (CVB1); conditions: 0.02 MOI CVB1, Vero cells, 72 hours, FIG. 4c
Procedure: After culture for 72 hours, a supernatant was titrated by a plaque reduction test, and results were obtained from three groups of parallel tests.

[7] = tested on: CVB1; assay: Time process test (administration time after infection); assay type: cell-based, Coxsackievirus B1 (CVB1); conditions: different administration times, FIG. 5
[8] = tested on: CVB2; conditions: Coxsackievirus B type 2; CPE in vitro
[9] = tested on: CVB3; conditions: Coxsackievirus B type 3; CPE in vitro

Q: Which “antiviral activity (in words)” value [1] does the source give for `CN(C)CCC=C1c2ccccc2COc2ccccc21` [doxepin hydrochloride] here?
A: strong antiviral activity

Q: What about the CC50 [2] of the same compound?
A: 90.7 ± 16.4 µM

Q: And the “antiviral activity (in words)” value [3]?
A: does not have any antiviral activity

Q: What about the “antiviral activity (in words)” value [4] of the same compound?
A: does not have any antiviral activity

Q: What about the “activity spectrum from inhibition rate (in words)” value [5] of the same compound?
A: broad-spectrum activity against Coxsackievirus B

Q: And the “progeny yield of CVB1 (in words)” value [6]?
A: inhibited the progeny yield of CVB1

Q: And the “stage of infection cycle inhibited (in words)” value [7]?
A: inhibits virus replication at an early stage of an infection cycle

Q: And the “antiviral activity (in words)” value [8]?
A: strong antiviral activity

Q: What about the “antiviral activity (in words)” value [9] of the same compound?
A: strong antiviral activity
